Data reported in patent publication US9345789B2, “Specific inhibitors and active site probes for legumain” (The Board of Trustees of the Leland Stanford Junior …, priority 2009, dated 2016).
“And” between values parts separate entries of the source, which are not always exact repeats. Equal entries are not always repeated. Where two headings read alike, the source gives them in different places. Values belong to the compound of their own block, whether it stands above or below them.

What was measured:
[1] = molecular target: cathepsin B (Homo sapiens (Human), UniProt P07858); assay: Inhibition of cathepsin B, fluorogenic substrate Cbz-Phe-Arg-AMC
Protocol: (§4) Determination of IC50 against cysteine proteases and second order rate constants (kobs1[I]) for legumain Activity of legumain was measured with the fluorogenic substrate, Cbz-Ala-Ala-Asn-AMC (Anaspec), cathepsin B and cathepsin L was measured with Cbz-Phe-Arg-AMC (Bachem), and caspase-3 was measured with Caspase-3 Substrate VII (Calbiochem). […] The increase in fluorescence was continuously monitored every 30 see for 2.5 hrs with a Spectramax M5 fluorescent plate reader (Molecular Devices), and inhibition curves were recorded. […] ICso values with known broad-spectrum cathepsin inhibitor (JPM-OEt) and caspase-3 inhibitor (Z-DEVD-FMK) were also measured for comparison. All measurements were performed in triplicate and the average values were reported.

[2] = molecular target: cathepsin L (Homo sapiens (Human), UniProt P07711); assay: Inhibition of cathepsin L, fluorogenic substrate Cbz-Phe-Arg-AMC
Chain of cathepsin L (P07711 114-333, species assumed): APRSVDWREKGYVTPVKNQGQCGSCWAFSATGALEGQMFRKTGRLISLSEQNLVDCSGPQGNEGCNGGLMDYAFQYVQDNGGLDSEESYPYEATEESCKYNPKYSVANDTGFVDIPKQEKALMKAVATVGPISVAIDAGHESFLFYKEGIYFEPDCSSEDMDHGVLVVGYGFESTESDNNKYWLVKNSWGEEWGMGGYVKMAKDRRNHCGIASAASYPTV
Protocol: as §4

[3] = molecular target: recombinant legumain (Homo sapiens (Human), UniProt Q99538); assay: Inhibition of recombinant legumain, fluorogenic substrate Cbz-Ala-Ala-Asn-AMC; format: biochemical; conditions: for IC50: at 60 min
Chain of recombinant legumain (Q99538 18-433, species assumed): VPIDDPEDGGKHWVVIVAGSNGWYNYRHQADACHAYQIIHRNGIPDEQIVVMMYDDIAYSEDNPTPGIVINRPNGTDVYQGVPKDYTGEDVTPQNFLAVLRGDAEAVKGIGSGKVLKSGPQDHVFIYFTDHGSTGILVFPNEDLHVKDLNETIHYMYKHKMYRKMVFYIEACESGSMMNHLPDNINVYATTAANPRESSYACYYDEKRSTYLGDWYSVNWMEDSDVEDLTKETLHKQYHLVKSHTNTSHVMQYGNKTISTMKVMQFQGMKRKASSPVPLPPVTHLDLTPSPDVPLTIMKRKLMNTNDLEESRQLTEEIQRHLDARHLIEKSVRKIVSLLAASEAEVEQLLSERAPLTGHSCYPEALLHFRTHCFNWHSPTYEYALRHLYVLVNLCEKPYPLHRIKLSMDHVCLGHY
Protocol: (§1) Assay buffers consist of 20 mM citric acid, 60 mM disodium hydrogen orthophosphate, 1 mM EDTA, 0.1% CHAPS, 4 mM DTT, pH 5.8 for legumain, 50 mM dihydrogen sodium orthophosphate, 1 mM EDTA, 5 mM DTT, pH 6.25 for cathepsin B and cathepsin Land 100 mM Tris, 0.1% CHAPS, 10% sucrose, 10 mM DTT, pH 7.4 for caspase-3.
Second-order inhibition rate constants were determined by following the previously described method in the literature (6). The pseudo-first-order rate constants (kobs) were obtained from plots of In vJ Vo versus time where Vo is the rate of hydrolysis of fluorogenic substrate and Vt is the rate of hydrolysis of substrate in the presence of the inhibitor. The second-order inhibition rate constants were calculated using the following equation. Second order rate constant=(kobs1[I])(1+[S]/Km)

[4] = tested on: caspase 3, cathepsin B or cathepsin L; assay: Selectivity: inhibition of enzymes other than legumain; format: biochemical; conditions: for inhibitory effect against other enzymes: even at millimolar concentrations
Protocol: Disclosed below are activity based probes, i.e., they only label active enzyme. The probes are specific for legumain, and may be used to inhibit or inhibit and label active enzyme in situ. […] It may be said, for example, the activity towards legumain will be on the order of at least 3 times greater for legumain than caspase 3, cathepsin B or cathepsin L, preferably at least 10 times greater, and even 100 times greater.
as §1

[5] = molecular target: caspase-3 (Homo sapiens (Human), UniProt P42574); assay: Inhibition of caspase-3, Caspase-3 Substrate VII; conditions: read-out: Caspase-3 IC50; at 30 min
Chain of caspase-3 (P42574 29-175, species assumed): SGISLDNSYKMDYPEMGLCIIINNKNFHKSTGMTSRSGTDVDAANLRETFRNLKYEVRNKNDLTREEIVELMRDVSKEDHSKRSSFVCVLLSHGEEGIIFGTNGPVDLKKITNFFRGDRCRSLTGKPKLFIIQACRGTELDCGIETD
Chain of caspase-3 (P42574 176-277, species assumed): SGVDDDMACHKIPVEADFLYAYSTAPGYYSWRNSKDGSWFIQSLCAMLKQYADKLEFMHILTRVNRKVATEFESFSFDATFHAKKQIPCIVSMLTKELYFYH
Protocol: as §4

[6] = tested on: cathepsins; assay: Off-target labeling of cathepsins in intact RAW 264.7 macrophages; format: cell-based; conditions: for cross reactivity towards lysosomal cathepsins: intact RAW 264.7 macrophages; for labeling of cathepsins: high concentrations
Protocol: Immunoprecipitation of cathepsins in intact raw 264.7 cells. […] High concentration of LP-1 was used to bring out all the off-target labeling in intact cells.
RAW 264.7 macrophages (600,000 cells/well) were seeded in a 6 well plate 24 hrs prior to labeling. […] High concentration of LP-1 was used to bring out all the off-target labeling in intact cells. Cells were washed with PBS buffer and lysed by addition of citrate-phosphate lysis buffer (50 mM citrate-phosphate, 1% CHAPS, 0.5% Triton, 5 mM DTT, pH 4.5). 20 μL of crude lysates were diluted to […] in RIPA buffer (phosphate-buffered saline, 0.5% NP-40, 1 mM EDTA, pH 7.4). Anti-mouse cathepsin B (E Weber Halle), anti-mouse cathepsin L (R&D Systems), anti-goat cathepsin S (Abchem) and anti-human cathepsin S (R&D Systems) were added and mixed for 15 mM at 0° C. 40 μL of Protein A/G Plus Agarose beads (Santa Cruz Biotechnology) were added and mixed overnight at 4° C. Samples were spun down and supernatant and beads were separated. Beads were washed with RIPA buffer and boiled after addition of sample buffer 2× (20% glycerol, 100 mM Tris HCl, pH 6.8, 6% SDS, and 10% b-mercaptoethanol). Acetone was added to the supernatant and kept at −80° C. for 2 h. Precipitated proteins were collected by centrifugation in the cold for 30 min, dried, and dissolved by boiling in sample buffer. Samples without immunoprecipitation (input), pellets (P) and supernatant (S) were separated on a 12.5% SDS-PAGE and visualized by scanning of the gel with a Typhoon flatbed laser scanner (excitation/emission 633/680 nm).
We treated intact NIH-3T3 and RAW 264.7 cells with LP-1 and LP-O respectively and monitored protein labeling using SDS-PAGE followed by scanning of the gel to detect the Cy5 fluorescence (FIG. 2). […] The identity of these off targets as cathepsins was confirmed by pre-treatment of cells with the broad-spectrum cathepsin inhibitor JPM-OEt (21) and further verified by immunoprecipitation (FIG. 16). Although some degree of cross reactivity of AOMK probes towards cathepsins has been reported (15), attempts to inhibit cathepsins with various aza-epoxide inhibitors have been unsuccessful (22). Therefore, the labeling of cathepsins by LP-I was particularly surprising. […] Furthermore, when cells were pre-treated with legumain inhibitors we observed more intense cathepsin labeling. […]
RAW 264.7 cells (250,000 cells/well) and NIH-3T3 cells (200,000 cells/well) were seeded in a 24 well plate 24-30 hrs prior to labeling. […] Labeled proteins were analyzed by scanning the gel with a Typhoon flatbed laser scanner (ex. 633 nM/em. 680 nM). […] The labeled samples were separated by 12.5% SDS-PAGE and analyzed by scanning the gel with a Typhoon flatbed scanner.

[7] = molecular target: T1, legumain (Mus musculus (Mouse), UniProt O89017); assay: Labeling of active legumain in intact NIH-3T3 fibroblasts (SDS-PAGE, Cy5 scan); format: cell-based
Text: We treated intact NIH-3T3 and RAW 264.7 cells with LP-1 and LP-O respectively and monitored protein labeling using SDS-PAGE followed by scanning of the gel to detect the Cy5 fluorescence (FIG. 2). […] The identity of these off targets as cathepsins was confirmed by pre-treatment of cells with the broad-spectrum cathepsin inhibitor JPM-OEt (21) and further verified by immunoprecipitation (FIG. 16). Although some degree of cross reactivity of AOMK probes towards cathepsins has been reported (15), attempts to inhibit cathepsins with various aza-epoxide inhibitors have been unsuccessful (22). Therefore, the labeling of cathepsins by LP-I was particularly surprising. […] Furthermore, when cells were pre-treated with legumain inhibitors we observed more intense cathepsin labeling. This could be explained by the fact that cathepsins are known to be substrates for legumain (3, 23), thus legumain inhibition could result in increased levels of cathepsins and therefore increased non-specific labeling by the legumain probes.
(§2) RAW 264.7 cells (250,000 cells/well) and NIH-3T3 cells (200,000 cells/well) were seeded in a 24 well plate 24-30 hrs prior to labeling. Cells were pre-treated with appropriate inhibitors for 1.5 hrs and labeled by addition of each probe for 1 hrs; the final DMSO concentration was maintained less than 0.2%. Cells were washed with PBS buffer and lysed by addition of sample buffer. Crude lysates were collected and separated by 12.5% SDS-PAGE. Labeled proteins were analyzed by scanning the gel with a Typhoon flatbed laser scanner (ex. 633 nM/em. 680 nM). For lysates labeling, cytosolic lysates of RAW 264.7 cells were prepared as previously described (29). Lysates were diluted to 1 mg/ml in 50 mM citrate phosphate buffer (pH 4.5), 0.1% CHAPS, 5 mM DTT and subjected to direct labeling. 25˜L of lysates samples were pre-treated with inhibitors for 30 min and labeled with probes for another 30 min. The labeled samples were separated by 12.5% SDS-PAGE and analyzed by scanning the gel with a Typhoon flatbed scanner.
Target sequence in this assay (O89017 18-325): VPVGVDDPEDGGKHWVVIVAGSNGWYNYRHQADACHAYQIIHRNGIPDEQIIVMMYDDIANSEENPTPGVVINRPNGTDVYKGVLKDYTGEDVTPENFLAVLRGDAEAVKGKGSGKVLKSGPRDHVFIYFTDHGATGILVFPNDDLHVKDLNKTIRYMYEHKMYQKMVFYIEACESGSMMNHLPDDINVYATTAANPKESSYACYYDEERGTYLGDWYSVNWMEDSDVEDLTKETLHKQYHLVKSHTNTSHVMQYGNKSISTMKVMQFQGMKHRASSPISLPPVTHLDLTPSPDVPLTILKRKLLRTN

[8] = molecular target: T1, legumain; assay: Ex vivo imaging of organs and SDS-PAGE analysis of organ lysates; format: in vivo, mice
Protocol: (§3) In vivo/ex vivo imaging and SDS-PAGE analysis of organ lysates was conducted as follows: Tumor bearing mice were prepared by following the previously described method (24). C2C12/Hras1 or MDA-MB 231 MFP cells ([…]) were injected subcutaneously on 4-8 week old male BALB/c nude mice. 14 days after transplantation, each probe (25 nmol in 100˜L of sterile PBS) was injected via the tail vein into tumor-bearing mice. Mice were imaged at various time points after injection using the IVIS 200 imaging system equipped with a Cy5.5 filter. Relative fluorescence of equal-sized areas of tumor and background were measured using Living Image software (Caliper life science). Upon finishing the last time point of imaging, mice were anesthetized and sacrificed by cervical dislocation. Tumors, livers, kidneys and spleens were collected and imaged ex vivo by using the FMT 2500 with a Cy5 filter. After ex vivo imaging, organs were lysed by a dounce homogenizer in muscle lysis buffer (1% Triton X-100, 0.1% SDS, 0.5% sodium deoxycholate, 0.2% sodium azide in PBS, pH 7.2). Total protein extracts (100˜g each) were separated by SDS-PAGE and visualized by scanning the gel with a Typhoon flatbed laser scanner.
Target sequence in this assay (O89017 18-435): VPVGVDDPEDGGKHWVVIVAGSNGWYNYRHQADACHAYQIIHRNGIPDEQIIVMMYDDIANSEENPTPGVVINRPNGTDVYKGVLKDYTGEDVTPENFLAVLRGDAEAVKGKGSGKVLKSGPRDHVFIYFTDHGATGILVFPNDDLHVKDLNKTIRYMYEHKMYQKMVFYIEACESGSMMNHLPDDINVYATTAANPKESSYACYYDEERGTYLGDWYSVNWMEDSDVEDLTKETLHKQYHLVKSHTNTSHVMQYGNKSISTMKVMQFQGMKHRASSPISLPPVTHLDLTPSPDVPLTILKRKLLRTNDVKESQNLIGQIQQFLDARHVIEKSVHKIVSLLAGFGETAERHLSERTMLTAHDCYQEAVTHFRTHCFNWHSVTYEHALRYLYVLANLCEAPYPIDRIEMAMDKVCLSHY

[9] = molecular target: T1, legumain; assay: Direct labeling of legumain in RAW cell lysates; format: biochemical
Protocol: as §2
Target sequence in this assay (O89017 18-435): as above
We believe that this cross-reactivity results from increased lysosomal uptake and is not the result of a loss of specificity as the result of addition of the tat peptide. […] We also performed a competition assay by pre-treating RAW lysates with each probe and labeling with the general cathepsin probe, I^125_DCG04 (25).

[10] = molecular target: T1, legumain; assay: In vivo fluorescence imaging of mice bearing C2C12/ras xenograft tumors; conditions: IV tail vein, 25 nmol probe
Protocol: In order to examine in vivo properties of LP-1 and monitor active legumain levels non-invasively, we performed imaging experiments using a simple tumor xenograft model (C2C 1 2/Hras 1)(24). […] Mice were injected with the probes via tail vein and fluorescent images were collected over the course of 5 hrs. […] Furthermore, the specific legumain signal was reduced to background levels after 120 min. This is in contrast to the previously reported cathepsin probes which only provide contrast after 8-12 hours and signals are retained beyond 48 hours.
as §3
Target sequence in this assay (O89017 18-435): as above

[11] = tested on: cathepsins; assay: Competitive inhibition of cathepsins in RAW cell lysates, labeled by 125I-DCG04; format: biochemical; conditions: competition with 125I-DCG04
Text: To test this hypothesis, we labeled RAW cell lysates with LP-1 and tLP-1 (FIG. 9).

[12] = read-out: Cathepsin L IC50, at 30 min

labeling of active legumain [7]: selectively labeled active legumain
Compound: CC[N+]1=C(/C=C/C=C/C=C2/N(CCCCCC(=O)NCCCCCC(=O)N3CCC[C@H]3C(=O)N[C@@H](CC(=O)O)C(=O)COC(=O)c3c(C)cccc3C)c3ccc(S(=O)(=O)O)cc3C2(C)C)C(C)(C)c2cc(S(=O)(=O)O)ccc21 [LP-0, reference compound]
cross reactivity towards lysosomal cathepsins [6]: some degree of cross reactivity towards lysosomal cathepsins

labeling of active legumain [7]: selectively labeled active legumain | accumulation / selective uptake in tumor [10]: rapidly accumulated in tumor tissues | time after which specific legumain signal was reduced to background levels [10]: 120 min | time of maximum tumor signal to background ratio [10]: around 90 min
Compound: CCOC(=O)C1OC1C(=O)N(CC(N)=O)NC(=O)C1CCCN1C(=O)CCCCCNC(=O)CCCCCN1C(=CC=CC=CC2=[N+](CC)c3ccc(S(=O)(=O)O)cc3C2(C)C)C(C)(C)c2cc(S(=O)(=O)O)ccc21 (stereo not drawn) [LP-1]
legumain labeling in tumors, organ distribution and cathepsin cross reactivity ([8]; ex vivo organs and SDS-PAGE of lysates): the most legumain labeling in tumors as well as the highest levels of legumain-specific fluorescent signal | selectivity of legumain labeling in vivo ([8]; organ extracts, SDS-PAGE): remarkably selective toward legumain in vivo and showed virtually no off-target labeling | reactivity towards legumain [9]: no difference in reactivity towards legumain | labeling of cathepsins [6]: labeled cathepsins only at high concentrations or when legumain activity is suppressed | cross reactivity towards lysosomal cathepsins [6]: some degree of cross reactivity towards lysosomal cathepsins | labeling of active legumain ([7]; listed as LP-I): labeled active legumain more efficiently than LP-0 at low probe concentrations | inhibition of cathepsins [11]: equally poor inhibitors of the cathepsins

IC50 ([1]; read-out: Cathepsin B IC50, at 30 min): > 1000 µM | Legumain kobs/[I] (second-order rate constant) [3]: 1586 M⁻¹ s⁻¹ | IC50 [3]: 0.704 µM | Legumain kobs/[I] (second-order rate constant) ([3]; listed as LI-O): 1585 M⁻¹ s⁻¹ | IC50 [5]: 2.8 µM | IC50 [2, 12]: > 1000 µM
Compound: CC(=O)N1CCC[C@H]1C(=O)N[C@@H](CC(=O)O)C(=O)COC(=O)c1c(C)cccc1C [LI-0, reference compound]

The next lines start with the compound.

Compound: CCOC(=O)[C@H]1O[C@@H]1C(=O)N[C@@H](CC(C)C)C(=O)NCCc1ccc(O)cc1 [JPM-OEt, reference compound]
IC50 [1]: 0.78 µM | IC50 [2]: 2.98 µM

Compound: CCOC(=O)[C@@H]1O[C@H]1C(=O)N(CC(N)=O)NC(=O)C1CCCN1C(C)=O (stereo partly drawn) [LI-1]
Legumain kobs/[I] (second-order rate constant) [3]: 72350 M⁻¹ s⁻¹ and 72352 M⁻¹ s⁻¹ | potency and rate of legumain inhibition, comparison of inhibitors ([3]; FIG. 18): greater potency and rate than either Li-2 or LI-0 | IC50 [3]: 0.0115 µM | inhibitory effect against other enzymes [4]: no inhibitory effect | IC50 [5]: 890 µM | IC50 [2, 12]: 220 µM

Compound: CCOC(=O)/C=C/C(=O)N(CC(N)=O)NC(=O)[C@@H]1CCCN1C(=O)CCCCCNC(=O)CCCCCN1/C(=C/C=C/C=C/C2=[N+](CC)c3ccc(S(=O)(=O)O)cc3C2(C)C)C(C)(C)c2cc(S(=O)(=O)O)ccc21 [LP-2]
labeling of cathepsins [6]: did not label any cathepsins at high concentrations

Compound: CCOC(=O)/C=C/C(=O)N(CC(N)=O)NC(=O)[C@@H]1CCCN1C(C)=O [LI-2]
selectivity for legumain ([4]; FIG. 18): most selective for legumain | inhibitory effect against other enzymes [4]: no inhibitory effect
